The target in assay [1] is T1, human B1R receptor (hB1R) (Homo sapiens, UniProt P46663).
T1 construct: host or cells: CHO K1 cells
T1 sequence (P46663 1-353): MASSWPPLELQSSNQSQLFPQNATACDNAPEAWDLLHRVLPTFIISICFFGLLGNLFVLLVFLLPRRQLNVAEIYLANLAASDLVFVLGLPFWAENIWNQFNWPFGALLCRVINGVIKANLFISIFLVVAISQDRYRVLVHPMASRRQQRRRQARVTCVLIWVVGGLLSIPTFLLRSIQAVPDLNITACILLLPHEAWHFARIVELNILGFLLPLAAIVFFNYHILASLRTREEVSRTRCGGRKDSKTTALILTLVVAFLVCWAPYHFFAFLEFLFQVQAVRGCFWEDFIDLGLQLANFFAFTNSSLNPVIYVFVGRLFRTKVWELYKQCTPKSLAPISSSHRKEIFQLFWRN
Briefly: FLIPR Ca2+ assay on human bradykinin 1 receptor (CHO K1 hB1R cells). In kind it is cell-based. Conditions: test substance 10 μM; CHO K1 cells with human B1R gene; agonist Lys-Des-Arg9-bradykinin 0.5 nM; compared to maximum achievable inhibition. In outline: (§1)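 CHO K1 cells stably expressing human or rat B1R were loaded with Fluo-4 and tested at 10 μM compound. Ca²⁺ signal was read in FLIPR as % activation versus agonist. After 10 min, agonist was added (hB1R: Lys-Des-Arg9-bradykinin 0.5 nM; rB1R: Des-Arg9-bradykinin 100 nM), and % inhibition was taken relative to maximum achievable inhibition.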

For assay [2], the target named is T2, B1R receptor of rats (rB1R) (Rattus norvegicus, UniProt P97583).
T2 construct: host or cells: CHO K1 cells
T2 sequence (P97583 1-337): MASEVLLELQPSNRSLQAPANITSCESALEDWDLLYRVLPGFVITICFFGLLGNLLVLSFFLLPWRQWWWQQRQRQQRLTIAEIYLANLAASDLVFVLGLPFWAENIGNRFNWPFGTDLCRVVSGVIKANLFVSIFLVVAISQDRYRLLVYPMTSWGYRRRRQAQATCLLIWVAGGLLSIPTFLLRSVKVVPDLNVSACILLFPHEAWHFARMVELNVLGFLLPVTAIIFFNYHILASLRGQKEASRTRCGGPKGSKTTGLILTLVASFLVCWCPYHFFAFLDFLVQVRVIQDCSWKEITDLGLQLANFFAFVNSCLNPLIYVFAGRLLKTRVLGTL
Briefly: FLIPR Ca2+ assay on rat bradykinin 1 receptor (CHO K1 rB1R cells). In kind it is cell-based. The note with it: test substance 10 μM; CHO K1 cells with B1R gene of rats; agonist Des-Arg9-bradykinin 100 nM; compared to maximum achievable inhibition. In short, it runs like this:
as §1

With `COc1cc(C)c(S(=O)(=O)N(CCOCC(=O)N2CCn3cccc3C2C(C)C)Cc2ccccc2)c(C)c1` (stereo not shown) [Example 155, N-benzyl-N-(2-(2-(1-isopropyl-3,4-dihydropyrrolo[1,2-a]pyrazin-2(1H)-yl)-2-oxoethoxy)ethyl)-4-methoxy-2,6-dimethylbenzenesulfonamide], the inhibition at 10 µM amounted to 75% in assay [1] and 101% in assay [2].
The like results for `COc1cc(C)c(S(=O)(=O)N(CCOCC(=O)N2CCn3cccc3C2c2ccc(Cl)nc2)Cc2ccccc2)c(C)c1C` (stereo not shown) [Example 42, N-benzyl-N-(2-(2-(1-(6-chloropyridin-3-yl)-3,4-dihydropyrrolo[1,2-a]pyrazin-2(1H)-yl)-2-oxoethoxy)ethyl)-4-methoxy-2,3,6-trimethylbenzenesulfonamide] were, in that order, 33% and 91%.
The like results for `COc1cc(C)c(S(=O)(=O)N(CCOCC(=O)N2CCn3c(CN(C)C)ccc3C2c2ccccc2)CC(C)C)c(C)c1C` (stereo not shown) [Example 91, N-(2-(2-(6-((dimethylamino)methyl)-1-phenyl-3,4-dihydropyrrolo[1,2-a]pyrazin-2(1H)-yl)-2-oxoethoxy)ethyl)-N-isobutyl-4-methoxy-2,3,6-trimethylbenzene-sulfonamide] were, in that order, 103% and 103%.
Regarding `COc1cc(C)c(S(=O)(=O)N(C)CCOCC(=O)N2CCn3c(CN4CCOCC4)ccc3C2c2ccccc2)c(C)c1C` (stereo not shown) [Example 150, 4-methoxy-N,2,3,6-tetramethyl-N-(2-(2-(6-(morpholinomethyl)-1-phenyl-3,4-dihydropyrrolo[1,2-a]pyrazin-2(1H)-yl)-2-oxoethoxy)ethyl)benzenesulfonamide], the inhibition at 10 µM in assay [1] and in assay [2] was 103% throughout.
For the compound `CCCC1c2cccn2CCN1C(=O)COCCN(Cc1ccccc1)S(=O)(=O)c1c(C)cc(OC)cc1C` (stereo not shown) [Example 154, N-benzyl-4-methoxy-2,6-dimethyl-N-(2-(2-oxo-2-(1-propyl-3,4-dihydropyrrolo[1,2-a]pyrazin-2(1H)-yl)ethoxy)ethyl)benzenesulfonamide], the results for the inhibition at 10 µM in assay [1] and in assay [2] were 23% and 87%, respectively.
The like results for `COc1ccc(C2c3cccn3CCN2C(=O)COCCN(CC(C)C)S(=O)(=O)c2c(C)cc(OC)c(C)c2C)cc1` (stereo not shown) [Example 22, N-isobutyl-4-methoxy-N-(2-(2-(1-(4-methoxyphenyl)-3,4-dihydropyrrolo[1,2-a]pyrazin-2(1H)-yl)-2-oxoethoxy)ethyl)-2,3,6-trimethylbenzenesulfonamide] were, in that order, 53% and 97%.
`COc1cc(C)c(S(=O)(=O)N(CCOCC(=O)N2CCn3cccc3C2c2ccc(C(C)(C)C)cc2)Cc2ccccc2)c(C)c1` (stereo not shown) [Example 51, N-benzyl-N-(2-(2-(1-(4-tert-butylphenyl)-3,4-dihydropyrrolo[1,2-a]pyrazin-2(1H)-yl)-2-oxoethoxy)ethyl)-4-methoxy-2,6-dimethylbenzenesulfonamide]: the inhibition at 10 µM in assay [1] was found to be 58%; in assay [2], 85%.
The like results for `CCC1c2ccc(C)n2CCN1C(=O)COCCN(CC(C)C)S(=O)(=O)c1c(C)cc(OC)c(C)c1C` (stereo not shown) [Example 103, N-(2-(2-(1-ethyl-6-methyl-3,4-dihydropyrrolo[1,2-a]pyrazin-2(1H)-yl)-2-oxoethoxy)ethyl)-N-isobutyl-4-methoxy-2,3,6-trimethylbenzenesulfonamide] were, in that order, 101% and 102%.
As for `CCCC1c2cccn2CCN1C(=O)COCCN(C)S(=O)(=O)c1c(C)cc(C)cc1C` (stereo not shown) [Example 146, N,2,4,6-tetramethyl-N-(2-(2-oxo-2-(1-propyl-3,4-dihydropyrrolo[1,2-a]pyrazin-2(1H)-yl)ethoxy)ethyl)benzenesulfonamide], the inhibition at 10 µM in assay [1] and in assay [2] was 102% in each case.
In the case of `COc1cc(C)c(S(=O)(=O)N(CCOCC(=O)N2CCn3cccc3C2c2ccccc2)Cc2ccccc2)c(C)c1` (stereo not shown) [Example 48, N-benzyl-4-methoxy-2,6-dimethyl-N-(2-(2-oxo-2-(1-phenyl-3,4-dihydropyrrolo[1,2-a]pyrazin-2(1H)-yl)ethoxy)ethyl)benzenesulfonamide], the inhibition at 10 µM worked out at 54% in assay [1] and 98% in assay [2].
The like results for `CCC1c2ccc(C)n2CCN1C(=O)COCCN(C)S(=O)(=O)c1c(C)cc(OC)cc1C` (stereo not shown) [Example 138, N-(2-(2-(1-ethyl-6-methyl-3,4-dihydropyrrolo[1,2-a]pyrazin-2(1H)-yl)-2-oxoethoxy)ethyl)-4-methoxy-N,2,6-trimethylbenzenesulfonamide] were, in that order, 104% and 102%.
On the same counts, the results for `COc1cc(C)c(S(=O)(=O)N(C)CCOCC(=O)N2CCn3c(Cc4cccnc4)ccc3C2)c(C)c1` [Example 174, 4-Methoxy-N,2,6-trimethyl-N-(2-(2-oxo-2-(6-(pyridin-3-ylmethyl)-3,4-dihydropyrrolo[1,2-a]pyrazin-2(1H)-yl)ethoxy)ethyl)benzenesulfonamide] are 100% and 94%.
Regarding `COc1cc(C)c(S(=O)(=O)N(CCOCC(=O)N2CCn3c(CN(C)C)ccc3C2Cc2ccccc2)Cc2ccccc2)c(C)c1` (stereo not shown) [Example 129, N-benzyl-N-(2-(2-(1-benzyl-6-((dimethylamino)methyl)-3,4-dihydropyrrolo[1,2-a]pyrazin-2-(1H)-yl)-2-oxoethoxy)ethyl)-4-methoxy-2,6-dimethylbenzene-sulfonamide], the “hB1R [10 μM] % Inhibition” value in assay [1] worked out at 100%. Further, in assay [2], the “rB1R [10 μM] % Inhibition” value is on record as 101%.
Turning to `Cc1cc(C)c(S(=O)(=O)N(C)CCOCC(=O)N2CCn3cccc3C2c2cccs2)c(C)c1` (stereo not shown) [Example 74, N,2,4,6-tetramethyl-N-(2-(2-oxo-2-(1-(thiophen-2-yl)-3,4-dihydropyrrolo[1,2-a]pyrazin-2(1H)-yl)ethoxy)ethyl)benzenesulfonamide], the figures for the inhibition at 10 µM in assay [1] and in assay [2] were 99% and 102%, respectively.
Turning to `COc1c(C)cc(S(=O)(=O)N(C)CCOCC(=O)N2CCn3c(CN4CCOCC4)ccc3C2c2ccccc2)c(C)c1C` (stereo not shown) [Example 108, 4-methoxy-N,2,3,5-tetramethyl-N-(2-(2-(6-(morpholinomethyl)-1-phenyl-3,4-dihydropyrrolo[1,2-a]pyrazin-2(1H)-yl)-2-oxoethoxy)ethyl)benzenesulfonamide], the inhibition at 10 µM in assay [1] and in assay [2] was 102% throughout.
Consider `COc1cc(C)c(S(=O)(=O)N(CCOCC(=O)N2CCn3ccnc3C2)Cc2ccccc2)c(C)c1C` [Example 43, N-benzyl-N-(2-(2-(5,6-dihydroimidazo[1,2-a]pyrazin-7(8H)-yl)-2-oxoethoxy)ethyl)-4-methoxy-2,3,6-trimethylbenzenesulfonamide], for which the values for the inhibition at 10 µM in assay [1] and in assay [2] were 33% and 73%, respectively.
`COc1cc(C)c(S(=O)(=O)N(C)CCOCC(=O)N2CCn3cccc3C2C(C)C)c(C)c1C` (stereo not shown) [Example 153, N-(2-(2-(1-isopropyl-3,4-dihydropyrrolo[1,2-a]pyrazin-2(1H)-yl)-2-oxoethoxy)ethyl)-4-methoxy-N,2,3,6-tetramethylbenzenesulfonamide]: the inhibition at 10 µM in assay [1] and in assay [2] was 103% in each case.
`COc1ccc(C2c3cccn3CCN2C(=O)COCCN(C)S(=O)(=O)c2c(C)cc(C)cc2C)cc1` (stereo not shown) [Example 69, N-(2-(2-(1-(4-methoxyphenyl)-3,4-dihydropyrrolo[1,2-a]pyrazin-2(1H)-yl)-2-oxoethoxy)ethyl)-N,2,4,6-tetramethylbenzenesulfonamide]: the inhibition at 10 µM in assay [1] is 101%; in assay [2], 100%.
Consider `COc1cc(C)c(S(=O)(=O)N(CCOCC(=O)N2CCn3c(CN4CCCC4)ccc3C2c2ccccc2)Cc2ccccc2)c(C)c1C` (stereo not shown) [Example 116, N-benzyl-4-methoxy-2,3,6-trimethyl-N-(2-(2-oxo-2-(1-phenyl-6-(pyrrolidin-1-ylmethyl)-3,4-dihydropyrrolo[1,2-a]pyrazin-2(1H)-yl)ethoxy)ethyl)benzene-sulfonamide], for which the inhibition at 10 µM in assay [1] was determined as 103%; in assay [2], 102%.
The like results for `COc1cc(C)c(S(=O)(=O)N(CCOCC(=O)N2CCn3c(CN(C)C)ccc3C2c2cccs2)CC(C)C)c(C)c1C` (stereo not shown) [Example 98, N-(2-(2-(6-((dimethylamino)methyl)-1-(thiophen-2-yl)-3,4-dihydropyrrolo[1,2-a]pyrazin-2(1H)-yl)-2-oxoethoxy)ethyl)-N-isobutyl-4-methoxy-2,3,6-trimethyl-benzenesulfonamide] were, in that order, 101% and 102%.

These data come from patent publication US8263598B2, “Substituted sulfonamide compounds” (Gruenenthal GmbH, priority 2008, dated 2012).
